According to patent publication US20120184769A1, “METHOD FOR ISOLATING […]-N,N-DIACETONITRILE” (BASF SE, priority 2009, published 2012):

Assay: Solubility of MGDN in water or aqueous ammonium sulfate solution
Type: physicochemical

SMILES: CC(C#N)N(CC#N)CC#N (stereo not drawn) [MGDN, methylglycinenitrile-N,N-diacetonitrile]
- dissolved MGDN in the aqueous solution (emulsion formed) (above about 60° C., emulsion of MGDN and its aqueous solution): more than 5 % by weight
- solubility of MGDN in water (at 10° C., in water or an aqueous ammonium sulfate solution): about 0.5 % by weight
- solubility of MGDN in water (at around 60° C.): about 5 % by weight
